{"source": "patent US9187496B2", "about": "(priority 2009, dated 2015)", "key": {"[1]": {"system": "Huh-7 cells containing HCV Con1 subgenomic replicon (GS4.1 cells)", "assay": "HCV replicon assay (NS5A ELISA)", "format": "cell-based", "conditions": "GS4.1 cells, 72 hrs, NS5A ELISA, read-out: EC50", "description": "General Procedure: Huh-7 cells containing HCV Con1 subgenomic replicon (GS4.1 cells) were grown in Dulbecco's Modified Eagle Medium (DMEM) supplemented with 10% fetal bovine serum (FBS), 2 mM L-glutamine, 110 mg/L sodium pyruvate, 1× non-essential amino acids, 100 U/mL penicillin-streptomycin, and 0.5 mg/mL G418 (Invitrogen). For dose-response testing, the cells were seeded in 96-well plates at 7.5×10^3 cells/well in a volume of 50 μL, and incubated at 37° C./5% CO2. Three hours after plating, 50 μL of ten 2-fold serial dilutions of compounds (highest concentration, 75 μM) were added, and cell cultures were incubated at 37° C./5% CO2 in the presence of 0.5% DMSO. Alternatively, compounds were tested at a single concentration of 15 μM. In all cases, Huh-7 cells lacking the HCV replicon served as negative control. The cells were incubated in the presence of compounds for 72 hrs after which they were monitored for expression of the NS5A protein by enzyme-linked immunosorbent assay (ELISA). For this, the plates were then fixed for 1 min with acetone/methanol (1:1, v/v), washed twice with phosphate-buffered saline (PBS), 0.1% Tween 20, blocked for 1 hr at room temperature with TNE buffer containing 10% FBS and then incubated for 2 hr at 37° C. with the anti-NS5A mouse monoclonal antibody A-236 (ViroGen) diluted in the same buffer. After washing three times with PBS, 0.1% Tween 20, the cells were incubated 1 hr at 37° C. with anti-mouse immunoglobulin G-peroxidase conjugate in TNE, 10% FBS. After washing as described above, the reaction was developed with O-phenylenediamine (Zymed). The reaction was stopped after 30 min with 2 N H2SO4, and absorbance was read at 492 nm using Sunrise Tecan spectrophotometer. EC50 values were determined from the % inhibition versus concentration data using a sigmoidal non-linear regression analysis based on four parameters with Tecan Magellan software."}, "[2]": {"system": "GS4.1 cells", "assay": "Cytotoxicity evaluation in GS4.1 cells (Cell Titer 96 AQueous One)", "format": "cell-based, human", "conditions": "cellular viability", "description": "For cytotoxicity evaluation, GS4.1 cells were treated with compounds as described above and cellular viability was monitored using the Cell Titer 96 AQueous One Solution Cell Proliferation Assay (Promega). CC50 values were determined from the % cytotoxicity versus concentration data with Tecan Magellan software as described above."}}, "note": "Like-named read-outs stand apart in the source and are kept apart here."}
{"compound": "COC(=O)N[C@H](C(=O)N1CCC[C@H]1C(=O)Nc1cn2cc(-c3cccc(NC(=O)[C@@H]4CCCN4C(=O)[C@H](NC(=O)OC)c4ccccc4)c3)sc2n1)C(C)C", "note": "[A149]", "values": [{"measurement": "EC50", "setting": "[1]; Hepatitis C virus, Huh-7", "result": "0.01 to 0.1", "unit": "µM"}, {"measurement": "CC50", "setting": "[2]", "result": "10 to 75", "unit": "µM"}]}
{"compound": "COC(=O)N[C@H](C(=O)N1CCC[C@H]1c1ncc(-c2ccc(-c3cn4cc(NC(=O)[C@@H]5CCCN5)nc4s3)cc2)[nH]1)C(C)C", "note": "[A150]", "values": [{"measurement": "EC50", "setting": "[1]", "result": "0.01 to 0.1", "unit": "µM"}, {"measurement": "CC50", "setting": "[2]", "result": "10 to 75", "unit": "µM"}]}
{"compound": "CC(C)(C)OC(=O)N1CCCC1c1ncc(-c2cn3cc(-c4ccc(Cl)cc4)sc3n2)[nH]1", "note": "(stereo not drawn) [A152]", "values": [{"measurement": "EC50", "setting": "[1]; Hepatitis C virus, Huh-7", "result": "> 0.1", "unit": "µM"}, {"measurement": "CC50", "setting": "[2]", "result": "10 to 75", "unit": "µM"}]}
{"compound": "COC(=O)N[C@@H](C(=O)N1CCC[C@H]1C(=O)Nc1ccc(-c2cn3cc(NC(=O)[C@@H]4CCCN4C(=O)[C@H](NC(=O)OC)c4ccccc4)nc3s2)cc1)c1ccccc1", "note": "[A79]", "values": [{"measurement": "EC50", "setting": "[1]", "result": "< 0.001", "unit": "µM"}, {"measurement": "CC50", "setting": "[2]", "result": "> 75", "unit": "µM"}]}
{"compound": "CC(C)(C)OC(=O)N1CCCC1c1nc(-c2ccc(-c3cn4cc(-c5ccc(-c6cnc([C@@H]7CCCN7C(=O)OC(C)(C)C)[nH]6)cc5)sc4n3)cc2)c[nH]1", "note": "(stereo partly drawn) [A157]", "values": [{"measurement": "EC50", "setting": "[1]; Hepatitis C virus, Huh-7", "result": "0.01 to 0.1", "unit": "µM"}, {"measurement": "CC50", "setting": "[2]", "result": "> 75", "unit": "µM"}]}
{"compound": "CCOC(=O)N[C@@H](C(=O)N1CCC[C@H]1C(=O)Nc1cn2cc(-c3ccc(-c4cnc([C@@H]5CCCN5C(=O)[C@@H](NC(=O)OC)C(C)C)[nH]4)cc3)sc2n1)c1ccccc1", "note": "[Compound A55, (S,S,S,R)-[1-(2-{5-[4-(6-{[1-(2-ethoxycarbonylamino-2-phenylacetyl)-pyrrolidine-2-carbonyl]-amino}imidazo[2,1-b]thiazol-2-yl)-phenyl]-1H-imidazol-2-yl}pyrrolidine-1-carbonyl)-2-methyl-propyl]-carbamic acid methyl ester]", "values": [{"measurement": "EC50", "setting": "[1]; Hepatitis C virus, Huh-7", "result": "< 0.001", "unit": "µM"}, {"measurement": "CC50", "setting": "[2]", "result": "10 to 75", "unit": "µM"}]}
{"compound": "COC(=O)N[C@H](C(=O)N1CCCC1c1ncc(-c2cc3sc(-c4ncc(-c5c[nH]c([C@@H]6CCCN6C(=O)[C@@H](NC(=O)OC)C(C)C)n5)s4)cc3s2)[nH]1)C(C)C", "note": "(stereo partly drawn) [A130]", "values": [{"measurement": "EC50", "setting": "[1]; Hepatitis C virus, Huh-7", "result": "< 0.001", "unit": "µM"}, {"measurement": "CC50", "setting": "[2]", "result": "> 75", "unit": "µM"}]}
{"compound": "COC(=O)N[C@@H](C(=O)N1CCC[C@H]1C(=O)Nc1ccc(C#Cc2cn3cc(NC(=O)[C@@H]4CCCN4C(=O)[C@H](NC(=O)OC)c4ccccc4)nc3s2)cc1)c1ccccc1", "note": "[A80]", "values": [{"measurement": "EC50", "setting": "[1]", "result": "< 0.001", "unit": "µM"}, {"measurement": "CC50", "setting": "[2]", "result": "> 75", "unit": "µM"}]}
{"compound": "COC(=O)N[C@H](C(=O)N1CCC[C@H]1C(=O)Nc1ccc(-c2cn3cc(NC(=O)C4CCCN4C(=O)[C@@H](NC(=O)OC)C(C)C)nc3s2)cc1)c1ccccc1", "note": "(stereo partly drawn) [A32]", "values": [{"measurement": "EC50", "setting": "[1]; Hepatitis C virus, Huh-7", "result": "< 0.001", "unit": "µM"}, {"measurement": "CC50", "setting": "[2]", "result": "> 75", "unit": "µM"}]}
{"compound": "COC(=O)N[C@H](C(=O)N1CCC[C@H]1C(=O)Nc1ccc(-c2cn3cc(NC(=O)OC(C)(C)C)nc3s2)cc1)C(C)C", "note": "[A34]", "values": [{"measurement": "EC50", "setting": "[1]", "result": "0.001 to 0.01", "unit": "µM"}, {"measurement": "CC50", "setting": "[2]", "result": "10 to 75", "unit": "µM"}]}
{"compound": "COC(=O)N[C@H](C(=O)N1CCCC1c1ncc(-c2ccc(-c3csc4c(-c5cnc(C6CCCN6C(=O)[C@H](NC(=O)OC)C(C)C)[nH]5)csc34)cc2)[nH]1)C(C)C", "note": "(stereo partly drawn) [A77]", "values": [{"measurement": "EC50", "setting": "[1]; Hepatitis C virus, Huh-7", "result": "< 0.001", "unit": "µM"}, {"measurement": "CC50", "setting": "[2]", "result": "> 75", "unit": "µM"}]}
{"compound": "COC(=O)N[C@H](C(=O)N1CCCC1c1ncc(-c2ccc(-c3ccc(-c4nc5sccn5c4Cl)cc3)cc2)[nH]1)C(C)C", "note": "(stereo partly drawn) [A154]", "values": [{"measurement": "EC50", "setting": "[1]; Hepatitis C virus, Huh-7", "result": "0.01 to 0.1", "unit": "µM"}, {"measurement": "CC50", "setting": "[2]", "result": "10 to 75", "unit": "µM"}]}
{"compound": "COC(=O)N[C@H](C(=O)N1CCCC1c1nc(-c2ccc(-c3c(C(=O)OC)[nH]c4c(-c5ccc(-c6cnc(C7CCCN7C(=O)[C@@H](NC(=O)OC)C(C)C)[nH]6)cc5)csc34)cc2)c[nH]1)C(C)C", "note": "(stereo partly drawn) [Compound A163]", "values": [{"measurement": "EC50", "setting": "[1]; Hepatitis C virus, Huh-7", "result": "< 0.001", "unit": "µM"}, {"measurement": "CC50", "setting": "[2]", "result": "> 75", "unit": "µM"}]}
{"compound": "COC(=O)N[C@H](C(=O)N1CCCC1c1cc(-c2ccc(-c3csc4c(-c5ccc(-c6cnc(C7CCCN7C(=O)[C@@H](NC(=O)OC)C(C)C)[nH]6)cc5)csc34)cc2)[nH]n1)C(C)C", "note": "(stereo partly drawn) [A87]", "values": [{"measurement": "EC50", "setting": "[1]; Hepatitis C virus, Huh-7", "result": "< 0.001", "unit": "µM"}, {"measurement": "CC50", "setting": "[2]", "result": "> 75", "unit": "µM"}]}
{"compound": "CC(C)(C)OC(=O)N1CCCC1c1ncc(-c2ccc(-c3nc4sccn4c3Cl)cc2)[nH]1", "note": "(stereo not drawn) [A161]", "values": [{"measurement": "EC50", "setting": "[1]; Hepatitis C virus, Huh-7", "result": "> 0.1", "unit": "µM"}, {"measurement": "CC50", "setting": "[2]", "result": "> 75", "unit": "µM"}]}
{"compound": "COC(=O)N[C@H](C(=O)N1CCC[C@H]1c1ncc(-c2ccc(-c3cn4cc(-c5cnc(C6CCCN6C(=O)[C@@H](NC(=O)OC(C)(C)C)c6ccccc6)[nH]5)nc4s3)cc2)[nH]1)C(C)C", "note": "(stereo partly drawn) [A33]", "values": [{"measurement": "EC50", "setting": "[1]; Hepatitis C virus, Huh-7", "result": "< 0.001", "unit": "µM"}, {"measurement": "CC50", "setting": "[2]", "result": "> 75", "unit": "µM"}]}
{"compound": "CC(C)(C)OC(=O)N1CCCC1c1ncc(-c2ccc(-c3cn4ccsc4n3)cc2)[nH]1", "note": "(stereo not drawn) [A167]", "values": [{"measurement": "EC50", "setting": "[1]; Hepatitis C virus, Huh-7", "result": "> 0.1", "unit": "µM"}]}
